Read-outs that look alike come from different tables or passages of the source.
Key:
[1] = Maximum tolerated dose (MTD) study of PEGylated conjugates of cabazitaxel in athymic mice; format: in vivo, female athymic nu/nu mice; conditions: qw x 3, iv; for Treatment-Related Deaths: N=5
Method: Purpose. This study was performed to determine appropriate doses of each compound for tumor xenograft studies. In those studies, it is desirable to administer the maximum dose of test compound that will not cause excessive loss of body weight. In general, loss of ˜15% of the initial body weight of the animal is typically the maximum desired.
Experimental procedure. MTD for 4-arm-conjugated to cabazitaxel were determined in female athymic nu/nu mice using standard methods. Briefly, 8-12 week old mice were administered test compounds or cabazitaxel intravenously at one week intervals for a total of three doses per mouse (qw×3, iv) as shown in Tables 1 and 2. For all PEG-conjugated test compounds, the doses of both the conjugate and released cabazitaxel, calculated from the cabazitaxel content of the respective conjugate, are shown. […] PEG-cabazitaxel conjugates were prepared in D5W. […] Mice were observed daily for clinical signs and body weights were recorded on days 1-5 and then biweekly until the end of study. All procedures were conducted in compliance with IACUC requirements. […] For any group with two measurements of mean body weight loss of greater than 20%, dosing was stopped and recovery was allowed. Within a group with greater than 20% mean weight loss, individual animals greater than 30% body weight loss were euthanized. Compound dosing was terminated for any group in which mean weight loss exceeded 20% or >10% of animals died. Moribund animals were euthanized and all animals were euthanized at end of study (day 30).
Results. The results for the study MTD “20K Conjugates” are summarized in Table 3 and FIG. 1 while the results for the MTD “30K and 40K Conjugates” study are summarized Table 4 and FIG. 2. […] It should be noted that this is not meant to be a definitive MTD, but is simply a guide to select an appropriate dose for conducting tumor xenograft studies using this administration route and schedule. Note too, that these MTD are given as cabazitaxel equivalents. The actual dose of each conjugate must be corrected for the wt % of cabazitaxel in that specific conjugate.

[2] = test system: H460 non-small cell lung cancer (NSCLC) implants; conditions: iv; for % TGD / Median TTE (Median Time to Endpoint) / TGD (tumor growth delay compared to vehicle) / CR (Number of Complete Regressions) / Deaths / PR (Number of Partial Regressions) / TFS (Number of Tumor Free Survivors) / MTV (Median Tumor Volume): qwk x 3; for CR (Number of Complete Regressions) / Deaths / PR (Number of Partial Regressions) / TFS (Number of Tumor Free Survivors): N=10; for BW Nadir (d), day of nadir: mouse, in vivo
Method: Purpose. Studies were conducted to assess the growth inhibitory effects of PEGylated-conjugates of cabazitaxel on H460 non-small cell lung cancer (NSCLC) implants in athymic nu/nu mice.
Experimental plan. These studies were conducted using routine methods and materials that are familiar to those skilled in the art. Briefly, 8 to 12 week old female nu/nu mice were injected subcutaneously in the flank with 1×10^7 H460 tumor cells in 0.2 mL sterile buffer. […] Animals received three intravenous doses of test article at one week intervals beginning on day 1. Cabazitaxel solutions were prepared in D5W containing 5% Tween 80:10% ethanol. PEG-cabazitaxel conjugates were prepared in D5W. The administration volume for all test articles was 10 mL/kg. The test doses were selected to represent the MTD and ½ the MTD for each test compound. The tables list the actual mg/kg for each test article and the corresponding cabazitaxel equivalent calculated based on the weight-percent cabazitaxel content for each PEGylated conjugate.
Animals were weighed on days 1-5, 7, 9, 11, 13 then biweekly until the end of the study. Tumor sizes were measured using calipers biweekly throughout the study and tumor volumes were calculated using the formula for an ellipsoid sphere: L×W^2/2=mm^3, where L and W are the major axis dimensions of the tumor in mm. Additional parameters that were monitored were the number of non-specific deaths, number of partial and complete tumor regressions, number of tumor-free survivors, and the time required for individual animals' tumors to reach 2000 mm^3. The median time for a tumor to reach 2000 mm^3 in the treatment groups (T) and control group (C) was used to calculate of the overall delay in the growth of the median tumor (TGD). Animals were monitored individually until reaching the experimental endpoint: tumor size of 2000 mm^3 or 45 days, whichever came first. […] When the study endpoint was reached, the animals were euthanized.

[3] = mainly by the CYP3A4/5 isozyme; cited from earlier work
[4] = MTD study 20K conjugates, 7.5 mg/kg cabazitaxel eq.
[5] = MTD study 20K conjugates, 15 mg/kg cabazitaxel eq.
[6] = MTD study 20K conjugates, 30 mg/kg cabazitaxel eq.
[7] = 20K conjugate xenograft study, 12.5 mg/kg cabazitaxel eq.
[8] = 20K conjugate xenograft study, 25 mg/kg cabazitaxel eq.
[9] = MTD study 30K and 40K conjugates, 30 mg/kg cabazitaxel eq.
[10] = 20K conjugate xenograft study, 15 mg/kg cabazitaxel eq.
[11] = 20K conjugate xenograft study, 30 mg/kg cabazitaxel eq.
[12] = 30K and 40K conjugate xenograft study, 15 mg/kg cabazitaxel eq.
[13] = 30K and 40K conjugate xenograft study, 30 mg/kg cabazitaxel eq.

Question: Which “BW Nadir” value [1, 4] does the source give for “4-ARM-PEG20K-Acetate-Linked Cabazitaxel [4-arm-PEG20K-CM-Cabazitaxel]” here?
Answer: The value was −3.4%.

Question: What about the “BW Nadir (day)” value [1, 4] of the same compound?
Answer: The value was 3 days.

Question: What about the “Treatment-Related Deaths” value [1, 4] of the same compound?
Answer: The value was 0.

Question: What about the “BW Nadir” value [1, 5] of the same compound?
Answer: Its value is −2.0%.

Question: What about the “BW Nadir (day)” value [1, 5] of the same compound?
Answer: The value was 3 days.

Question: What about the “Treatment-Related Deaths” value [1, 5] of the same compound?
Answer: Its value is 0.

Question: And the “BW Nadir” value [1, 6]?
Answer: Its value is −10.2%.

Question: What about the “BW Nadir (day)” value [1, 6] of the same compound?
Answer: Its value is 23 days.

Question: And the “Treatment-Related Deaths” value [1, 6]?
Answer: The value was 0.

Question: What about the “Estimated MTD, cabazitaxel equivalents” value ([1]; athymic nu/nu mice, guide value, not a definitive MTD) of the same compound?
Answer: The value was 25 mg/kg.

Question: What about the “% TGD” value [2, 7] of the same compound?
Answer: The value was 99%.

Question: What about the “Median TTE (Median Time to Endpoint)” value [2, 7] of the same compound?
Answer: The value was 36.8 days.

Question: And the “TGD (tumor growth delay compared to vehicle)” value [2, 7]?
Answer: The value was 18.3 days.

Question: And the “CR (Number of Complete Regressions)” value [2, 7]?
Answer: The value was 0.

Question: And the Deaths [2, 7]?
Answer: Its Deaths is 0.

Question: And the “PR (Number of Partial Regressions)” value [2, 7]?
Answer: The value was 0.

Question: What about the “TFS (Number of Tumor Free Survivors)” value [2, 7] of the same compound?
Answer: Its value is 0.

Question: And the “% TGD” value [2, 8]?
Answer: Its value is 154%.

Question: And the “MTV (Median Tumor Volume)” value [2, 8]?
Answer: Its value is 358 mm^3.

Question: And the “TGD (tumor growth delay compared to vehicle)” value [2, 8]?
Answer: The value was 28.5 days.

Question: What about the “CR (Number of Complete Regressions)” value [2, 8] of the same compound?
Answer: The value was 0.

Question: And the Deaths [2, 8]?
Answer: Its Deaths is 0.

Question: And the “PR (Number of Partial Regressions)” value [2, 8]?
Answer: Its value is 10.

Question: What about the “TFS (Number of Tumor Free Survivors)” value [2, 8] of the same compound?
Answer: Its value is 0.

Question: For CO[C@H]1C(=O)[C@]2(C)[C@@H](OC)C[C@H]3OC[C@@]3(OC(C)=O)[C@H]2[C@H](OC(=O)c2ccccc2)[C@]2(O)C[C@H](OC(=O)[C@H](O)[C@@H](NC(=O)OC(C)(C)C)c3ccccc3)C(C)=C1C2(C)C [Cabazitaxel, (2α,5β,7β,10β,13α-4-acetoxy-13-({(2R,3S)-3-[(tertbutoxycarbonyl)amino]-2-hydroxy-3-phenylpropanoyl}oxy)-1-hydroxy-7,10-dimethoxy-9-oxo-5,20-epoxytax-11-en-2-yl benzoate], which “Extent metabolized in the liver” value [3] is on record?
Answer: The value was > 95%.

Question: And the “BW Nadir” value [1, 6]?
Answer: The value was −15.4%.

Question: And the “BW Nadir (day)” value [1, 6]?
Answer: Its value is 20 days.

Question: And the “Treatment-Related Deaths” value [1, 6]?
Answer: Its value is 0.

Question: And the “BW Nadir” value [1, 9]?
Answer: The value was −6.8%.

Question: What about the “BW Nadir (day)” value [1, 9] of the same compound?
Answer: The value was 21 days.

Question: What about the “Treatment-Related Deaths” value [1, 9] of the same compound?
Answer: Its value is 0.

Question: And the “% TGD” value [2, 10]?
Answer: The value was 52%.

Question: What about the “MTV (Median Tumor Volume)” value [2, 10] of the same compound?
Answer: Its value is 1764 mm^3.

Question: What about the “Median TTE (Median Time to Endpoint)” value [2, 10] of the same compound?
Answer: The value was 28.1 days.

Question: What about the “TGD (tumor growth delay compared to vehicle)” value [2, 10] of the same compound?
Answer: The value was 9.6 days.

Question: What about the “CR (Number of Complete Regressions)” value [2, 10] of the same compound?
Answer: Its value is 0.

Question: And the Deaths [2, 10]?
Answer: The Deaths was 0.

Question: What about the “PR (Number of Partial Regressions)” value [2, 10] of the same compound?
Answer: Its value is 0.

Question: What about the “TFS (Number of Tumor Free Survivors)” value [2, 10] of the same compound?
Answer: The value was 0.

Question: And the “% TGD” value [2, 11]?
Answer: The value was 154%.

Question: And the “MTV (Median Tumor Volume)” value [2, 11]?
Answer: The value was 918 mm^3.

Question: What about the “TGD (tumor growth delay compared to vehicle)” value [2, 11] of the same compound?
Answer: Its value is 28.5 days.

Question: And the “CR (Number of Complete Regressions)” value [2, 11]?
Answer: The value was 0.

Question: What about the Deaths [2, 11] of the same compound?
Answer: Its Deaths is 0.

Question: What about the “PR (Number of Partial Regressions)” value [2, 11] of the same compound?
Answer: Its value is 3.

Question: What about the “TFS (Number of Tumor Free Survivors)” value [2, 11] of the same compound?
Answer: Its value is 0.

Question: What about the “% TGD” value [2, 12] of the same compound?
Answer: The value was 87%.

Question: What about the “Median TTE (Median Time to Endpoint)” value [2, 12] of the same compound?
Answer: Its value is 27.9 days.

Question: What about the “TGD (tumor growth delay compared to vehicle)” value [2, 12] of the same compound?
Answer: Its value is 13 days.

Question: And the “CR (Number of Complete Regressions)” value [2, 12]?
Answer: The value was 0.

Question: And the Deaths [2, 12]?
Answer: The Deaths was 0.

Question: And the “PR (Number of Partial Regressions)” value [2, 12]?
Answer: The value was 0.

Question: What about the “TFS (Number of Tumor Free Survivors)” value [2, 12] of the same compound?
Answer: Its value is 0.

Question: What about the “% TGD” value [2, 13] of the same compound?
Answer: Its value is 208%.

Question: And the “MTV (Median Tumor Volume)” value [2, 13]?
Answer: Its value is 994 mm^3.

Question: And the “TGD (tumor growth delay compared to vehicle)” value [2, 13]?
Answer: The value was 31.1 days.

Question: And the “CR (Number of Complete Regressions)” value [2, 13]?
Answer: Its value is 0.

Question: What about the Deaths [2, 13] of the same compound?
Answer: Its Deaths is 0.

Question: And the “PR (Number of Partial Regressions)” value [2, 13]?
Answer: Its value is 5.

Question: What about the “TFS (Number of Tumor Free Survivors)” value [2, 13] of the same compound?
Answer: The value was 0.

Question: What about the “BW Nadir (d), day of nadir” value ([2]; 15 mg/kg) of the same compound?
Answer: Its value is “(22) d”.

Question: And the “BW Nadir (d), day of nadir” value ([2]; 30 mg/kg)?
Answer: Its value is “(22) d”.
